Laboratory results published in article PMC7534374 (Journal of Enzyme Inhibition and Medicinal Chemistry, 2020).

Assays:
[1] = molecular target: T1, human glutathione reductase (hGR) (Homo sapiens, UniProt P00390); assay: GR activity assay; type: biochemical
T1 sequence (P00390 44-522): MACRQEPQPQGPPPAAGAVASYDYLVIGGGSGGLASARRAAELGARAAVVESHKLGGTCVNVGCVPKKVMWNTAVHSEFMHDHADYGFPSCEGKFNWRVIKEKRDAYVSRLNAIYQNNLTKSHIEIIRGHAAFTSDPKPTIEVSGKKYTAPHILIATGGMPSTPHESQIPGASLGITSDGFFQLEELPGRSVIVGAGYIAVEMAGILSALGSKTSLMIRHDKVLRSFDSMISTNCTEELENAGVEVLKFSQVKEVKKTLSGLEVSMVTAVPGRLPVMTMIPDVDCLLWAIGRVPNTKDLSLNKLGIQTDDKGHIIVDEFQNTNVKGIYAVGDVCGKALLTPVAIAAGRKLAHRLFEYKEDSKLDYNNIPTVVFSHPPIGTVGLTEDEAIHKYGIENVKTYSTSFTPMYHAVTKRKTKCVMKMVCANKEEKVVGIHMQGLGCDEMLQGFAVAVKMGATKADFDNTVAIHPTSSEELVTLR

[2] = molecular target: T2, yeast glutathione reductase (yGR) (Saccharomyces cerevisiae, UniProt P41921); assay: LC-MS/MS of covalent adduct; type: biochemical; conditions: read-out: Ki
T2 sequence (P41921 1-483): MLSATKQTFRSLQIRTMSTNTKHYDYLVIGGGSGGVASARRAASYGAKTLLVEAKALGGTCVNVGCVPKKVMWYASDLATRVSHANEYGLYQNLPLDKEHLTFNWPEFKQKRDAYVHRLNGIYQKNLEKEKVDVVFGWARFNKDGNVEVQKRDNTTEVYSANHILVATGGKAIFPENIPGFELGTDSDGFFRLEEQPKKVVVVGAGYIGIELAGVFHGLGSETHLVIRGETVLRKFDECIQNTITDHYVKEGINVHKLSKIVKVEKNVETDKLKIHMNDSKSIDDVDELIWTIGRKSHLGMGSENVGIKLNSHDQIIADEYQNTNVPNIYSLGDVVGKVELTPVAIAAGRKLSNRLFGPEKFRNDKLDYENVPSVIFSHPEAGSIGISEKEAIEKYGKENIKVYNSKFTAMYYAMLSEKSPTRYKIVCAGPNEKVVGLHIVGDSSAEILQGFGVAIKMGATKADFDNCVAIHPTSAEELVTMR

Row | SMILES | GR activity assay (NADPH consumption at 340 nm) [1] | KI (inactivation) [2]
1 | S=C=NCc1ccccc1 [BITC, Benzyl isothiocyanate] | BITC exerted comparable inhibitory effect against both of yeast and human GRs | 260 µM
2 | S=C=NCCc1ccccc1 [PEITC, Phenethyl isothiocyanate] | both of BITC and PEITC inhibited yeast or human GR in a concentration-dependent manner | –
